This note sets out measurements from patent publication US20100227931A1, “ANTIFUNGAL COMPOSITION” (Kao Corporation, priority 2007, published 2010).

A short description of the series: Measurement of calcium-chelating constant (Ca2+ ion electrode, pH 10 buffer). The note with it: 0.1 mol/L NH4Cl-NH4OH buffer pH 10; 1:1 chelate complex assumed. It counts as physicochemical. As to the method:
As used herein, the “calcium-chelating constant” refers a value determined by the following method. A solution of 0.1 mol/L NH4Cl-NH4OH (pH 10) is prepared as a buffer. The buffer is used for preparing all sample solutions. To measure a concentration of Ca^2+, an ion meter, Orion […], and a Ca^2+ ion electrode are used. First, a relationship between calcium chloride concentration and potential of the electrode is determined to generate a calibration curve. […] A concentration of remaining Ca^2+ is measured using the Ca^2+ ion electrode. […] [formula] [M]total: initial Ca^2+ concentration [L]total: initial chelating agent concentration [M]: remaining Ca^2+ concentration

SMILES strings stand for the structures.

In the case of `O=C(O)CN(CCN(CC(=O)O)CC(=O)O)CC(=O)O` [EDTA, ethylenediaminetetraacetic acid], the calcium-chelating constant came out at 12. With `O=C(O)CC(O)(CC(=O)O)C(=O)O` [citric acid] the figure was 3.
